From PubChem BioAssay AID1259407 (Chemical Carcinogenesis Research Information System (CCRIS), 2018)
The source made the active and inactive calls. No rule for the calls is given here.

System: CCRIS mutagenicity, Ames/micronucleus/aberration tests
Experiment: CCRIS mutagenicity studies
[1] = Test System: AMES SALMONELLA TYPHIMURIUM, Strain/Indicator: TA98, Metabolic Activation: NONE, Method: PREINCUBATION
[2] = Test System: AMES SALMONELLA TYPHIMURIUM, Strain/Indicator: TA100, Metabolic Activation: NONE, Method: PREINCUBATION
[3] = Test System: AMES SALMONELLA TYPHIMURIUM, Strain/Indicator: TA1535, Metabolic Activation: NONE, Method: PREINCUBATION

## CCCCC(CC)CNCC(CC)CCCC (stereo not given)
Test System: AMES SALMONELLA TYPHIMURIUM, Strain/Indicator: TA97, Metabolic Activation: HAMSTER, LIVER, S-9, AROCLOR 1254 (10%), Method: PREINCUBATION
  mutagenic call: inactive; negative
Test System: AMES SALMONELLA TYPHIMURIUM, Strain/Indicator: TA97, Metabolic Activation: HAMSTER, LIVER, S-9, AROCLOR 1254 (30%), Method: PREINCUBATION
  mutagenic call: inactive; negative
Test System: AMES SALMONELLA TYPHIMURIUM, Strain/Indicator: TA97, Metabolic Activation: NONE, Method: PREINCUBATION
  mutagenic call: inactive; negative
Test System: AMES SALMONELLA TYPHIMURIUM, Strain/Indicator: TA97, Metabolic Activation: RAT, LIVER, S-9, AROCLOR 1254 (10%), Method: PREINCUBATION
  mutagenic call: inactive; negative
Test System: AMES SALMONELLA TYPHIMURIUM, Strain/Indicator: TA97, Metabolic Activation: RAT, LIVER, S-9, AROCLOR 1254 (30%), Method: PREINCUBATION
  mutagenic call: inactive; negative
Test System: AMES SALMONELLA TYPHIMURIUM, Strain/Indicator: TA98, Metabolic Activation: HAMSTER, LIVER, S-9, AROCLOR 1254 (10%), Method: PREINCUBATION
  mutagenic call: inactive; negative
Test System: AMES SALMONELLA TYPHIMURIUM, Strain/Indicator: TA98, Metabolic Activation: HAMSTER, LIVER, S-9, AROCLOR 1254 (30%), Method: PREINCUBATION
  mutagenic call: inactive; negative
[1]
  mutagenic call: inactive; negative
Test System: AMES SALMONELLA TYPHIMURIUM, Strain/Indicator: TA98, Metabolic Activation: RAT, LIVER, S-9, AROCLOR 1254 (10%), Method: PREINCUBATION
  mutagenic call: inactive; negative
Test System: AMES SALMONELLA TYPHIMURIUM, Strain/Indicator: TA98, Metabolic Activation: RAT, LIVER, S-9, AROCLOR 1254 (30%), Method: PREINCUBATION
  mutagenic call: inactive; negative
Test System: AMES SALMONELLA TYPHIMURIUM, Strain/Indicator: TA100, Metabolic Activation: HAMSTER, LIVER, S-9, AROCLOR 1254 (10%), Method: PREINCUBATION
  mutagenic call: inactive; negative
Test System: AMES SALMONELLA TYPHIMURIUM, Strain/Indicator: TA100, Metabolic Activation: HAMSTER, LIVER, S-9, AROCLOR 1254 (30%), Method: PREINCUBATION
  mutagenic call: inactive; negative
[2]
  mutagenic call: inactive; negative
Test System: AMES SALMONELLA TYPHIMURIUM, Strain/Indicator: TA100, Metabolic Activation: RAT, LIVER, S-9, AROCLOR 1254 (10%), Method: PREINCUBATION
  mutagenic call: inactive; negative
Test System: AMES SALMONELLA TYPHIMURIUM, Strain/Indicator: TA100, Metabolic Activation: RAT, LIVER, S-9, AROCLOR 1254 (30%), Method: PREINCUBATION
  mutagenic call: inactive; negative
Test System: AMES SALMONELLA TYPHIMURIUM, Strain/Indicator: TA1535, Metabolic Activation: HAMSTER, LIVER, S-9, AROCLOR 1254 (10%), Method: PREINCUBATION
  mutagenic call: inactive; negative
Test System: AMES SALMONELLA TYPHIMURIUM, Strain/Indicator: TA1535, Metabolic Activation: HAMSTER, LIVER, S-9, AROCLOR 1254 (30%), Method: PREINCUBATION
  mutagenic call: inactive; negative
[3]
  mutagenic call: inactive; negative
Test System: AMES SALMONELLA TYPHIMURIUM, Strain/Indicator: TA1535, Metabolic Activation: RAT, LIVER, S-9, AROCLOR 1254 (10%), Method: PREINCUBATION
  mutagenic call: inactive; negative
Test System: AMES SALMONELLA TYPHIMURIUM, Strain/Indicator: TA1535, Metabolic Activation: RAT, LIVER, S-9, AROCLOR 1254 (30%), Method: PREINCUBATION
  mutagenic call: inactive; negative

## CC(C)(C)Br
Test System: AMES SALMONELLA TYPHIMURIUM, Strain/Indicator: TA100, Metabolic Activation: NONE, Method: DESICCATOR
  mutagenic call: active; positive
Test System: AMES SALMONELLA TYPHIMURIUM, Strain/Indicator: TA100, Metabolic Activation: RAT, LIVER, S-9, AROCLOR 1254, Method: DESICCATOR
  mutagenic call: active; positive

## CC(C)NCC(O)c1ccc(O)c(O)c1 (stereo not given)
End Point: IN VITRO CHROMOSOMAL ABERRATIONS, Test System: CHINESE HAMSTER OVARY CELLS, Metabolic Activation: NONE
  mutagenic call: inactive; negative
End Point: IN VITRO CHROMOSOMAL ABERRATIONS, Test System: CHINESE HAMSTER OVARY CELLS, Metabolic Activation: RAT, LIVER, S-9, AROCLOR 1254
  mutagenic call: active; positive
Test System: AMES SALMONELLA TYPHIMURIUM, Strain/Indicator: TA98, Metabolic Activation: HAMSTER, LIVER, S-9, AROCLOR 1254, Method: PREINCUBATION
  mutagenic call: inactive; negative
[1]
  mutagenic call: inactive; negative
Test System: AMES SALMONELLA TYPHIMURIUM, Strain/Indicator: TA98, Metabolic Activation: RAT, LIVER, S-9, AROCLOR 1254, Method: PREINCUBATION
  mutagenic call: inactive; negative
Test System: AMES SALMONELLA TYPHIMURIUM, Strain/Indicator: TA100, Metabolic Activation: HAMSTER, LIVER, S-9, AROCLOR 1254, Method: PREINCUBATION
  mutagenic call: inactive; negative
[2]
  mutagenic call: inactive; negative
Test System: AMES SALMONELLA TYPHIMURIUM, Strain/Indicator: TA100, Metabolic Activation: RAT, LIVER, S-9, AROCLOR 1254, Method: PREINCUBATION
  mutagenic call: inactive; negative
Test System: AMES SALMONELLA TYPHIMURIUM, Strain/Indicator: TA1535, Metabolic Activation: HAMSTER, LIVER, S-9, AROCLOR 1254, Method: PREINCUBATION
  mutagenic call: inactive; negative
[3]
  mutagenic call: inactive; negative
Test System: AMES SALMONELLA TYPHIMURIUM, Strain/Indicator: TA1535, Metabolic Activation: RAT, LIVER, S-9, AROCLOR 1254, Method: PREINCUBATION
  mutagenic call: inactive; negative
Test System: AMES SALMONELLA TYPHIMURIUM, Strain/Indicator: TA1537, Metabolic Activation: HAMSTER, LIVER, S-9, AROCLOR 1254, Method: PREINCUBATION
  mutagenic call: inactive; negative
Test System: AMES SALMONELLA TYPHIMURIUM, Strain/Indicator: TA1537, Metabolic Activation: NONE, Method: PREINCUBATION
  mutagenic call: inactive; negative
Test System: AMES SALMONELLA TYPHIMURIUM, Strain/Indicator: TA1537, Metabolic Activation: RAT, LIVER, S-9, AROCLOR 1254, Method: PREINCUBATION
  mutagenic call: inactive; negative

## ClC(COCC(Cl)C(Cl)(Cl)Cl)C(Cl)(Cl)Cl (stereo not given)
Test System: AMES SALMONELLA TYPHIMURIUM, Strain/Indicator: TA98, Metabolic Activation: NONE, Method: MICROSUSPENSION
  mutagenic call: inactive; negative
Test System: AMES SALMONELLA TYPHIMURIUM, Strain/Indicator: TA98, Metabolic Activation: S-9, Method: MICROSUSPENSION
  mutagenic call: inactive; negative
Test System: AMES SALMONELLA TYPHIMURIUM, Strain/Indicator: TA100, Metabolic Activation: NONE, Method: MICROSUSPENSION
  mutagenic call: active; positive
Test System: AMES SALMONELLA TYPHIMURIUM, Strain/Indicator: TA100, Metabolic Activation: S-9, Method: MICROSUSPENSION
  mutagenic call: inactive; negative
